Patent US6797726B1, “N-alkoxyalkyl-N,N-dialkylamine derivatives or salts thereof, and remedies for nerve degeneration diseases containing the same” (Toyama Chemical Co., Ltd., priority 1999, dated 2004)

How the values were obtained:
[1] = system: cultured nerve cell death induced by Aβ; assay: Activity of inhibiting the Aβ-induced nerve cell death (MTT assay); format: cell-based, Wistar rat; details: 0.1 μM; Aβ (25-35) 20 μmol/L; cultured rat embryo cerebral cortex nerve cells
Text: The effect of inhibiting the death of cultured nerve cell induced by Aβ was examined by a modification of the method described in Brain Research, Vol. 639, Page 240 (1994).
Cerebral cortex excised from the brain of an embryo of Wistar rat (embryonal age 17-19 days) was cut into small pieces and then treated with trypsin to dissociate the nerve cells. The cells were spread onto a 48-well tissue-culture plate at a rate of 1×10^5 cells per well, and cultured under a condition of 5% carbon dioxide, 37° C., in a Dulbecco modified Eagle medium to which B27 additives (product of GIBCO BRL) and 3.6 mg/mL glucose were added.
When the cultured had been continued for 12-13 days, a solution of potassium chloride was added so as to give a final concentration of 25 mmol/L, immediately after which a test agent was added. Twenty four hours after addition of the test agent, Aβ (25-35 peptide residues) dissolved in distilled water was added so as to give a final concentration of 20 μmol/L. Twenty four hours after addition of Aβ, the medium was changed to a medium prepared by adding test compound to Dulbecco modified Eagle medium to which B27 and 3.6 mg/mL glucose were added.
The inhibitory activity of test agent on the cultured nerve cell death was expressed by using the activity of inhibiting the decrease of MTT reducing ability as an index. That is, 48 hours after changing the medium, MTT assay developed by Mossmann [Journal of Immunological Methods, Vol. 65, Page 55 (1983)] was carried out, and the inhibition rate (%) of the agent on the decrease of MTT assay value induced by Aβ was calculated.
Inhibition rate=[(Aβ+MTT assay value of agent−added group)−(MTT assay value of Aβ−added group)]÷[MTT assay value of no addition group−MTT assay value of Aβ−added group]×100

sciatic nerve = assay: Nerve-regeneration promoting activity (crushed sciatic nerve); format: in vivo; details: 10 mg/kg intra-abdominally, 1 hour after crushing then twice per day for 5 days, SD rats, measured six days after operation
Procedure: The test was carried out according to the description of Experimental Neurology, Vol. 140, Page 198 (1996). SD rats (male, 6 weeks age, body weight 160-200 g) were anesthetized with Pentobarbital. The left sciatic nerve was exposed from the upper femoral muscular texture and peeled off from the surrounding texture, while taking care so as to give no injury to the muscular fiber. […] The crushed zone was marked with a thread at the end of neurilemma, and the operated portion was sutured. One hour after the crushing, a test compound dissolved in physiological salt solution was administered intra-abdominally at a dosage of 10 mg/kg. Thereafter, the same administration as above was repeated twice per day far 5 days. Six days after the operation, the operated portion was again opened under an anesthesia using Pentobarbital to expose the sciatic nerve, and a forceps was made to contact to the nerve from a position about 25 mm distant from the crushed part. The forceps was slowly moved toward the crushed part until a reflex reaction appeared. […] To the control group, only a saline was given. The sciatic nerve regeneration rate of the test compound was calculated according to the following equation: (Regeneration distance in administration group)÷(Regeneration distance in control group)×100(%)

ddY male mice = assay: Anti-hypoxic activity; format: in vivo; details: 100 mg/kg orally, 30 minutes after administration, gas 4% oxygen / 96% nitrogen at 5 L/minute; for response vs control in vivo at 100 mg/kg: Mus musculus, po, 0.5 h, read-out: Anti-hypoxic activity: (survival time of mouse in administered group)÷(survival time of mouse in control group)×100
Procedure: A test compound (100 mg/kg) dissolved in distilled water is orally administered to ddY male mice of 5-6 weeks age (6-10 heads per group). Thirty minutes after the administration, each mouse was introduced into a glass vessel, and a gas mixture consisting of 4% of oxygen and 96% of nitrogen was passed through the glass vessel at a rate of 5 L/minute. The period of the time from the beginning of sending the gas to the death of the animal was measured.
To the control group, only distilled water was orally given. Anti-hypoxic activity of test compound was calculated according to the following equation:
(Survival time of mouse in administered group)÷(Survival time of mouse in control group)×100(%)

[2] = system: cultured nerve cells death induced by HNE; assay: Activity of inhibiting the HNE-induced nerve cell death (MTT assay); format: cell-based, Wistar rat; details: 0.1 μM; HNE 25 μmol/L; cultured rat embryo cerebral cortex nerve cells; 24 hours
Text: The protecting effect against the death of cultured nerve cells induced by HNE was examined by a modification of the method described in the Journal of Neuroscience, Vol. 17, Page 5089 (1997).
Cerebral cortex excised from the brain of an embryo of Wistar rat (embryonal age 17-19 days) was cut into small pieces and then treated with trypsin to dissociate the nerve cells. The cells were spread onto a 48-well tissue-culture plate at a rate of 5×10^5 cells per well, and cultured under a condition of 5% carbon dioxide, 37° C., in a Dulbecco modified Eagle medium to which 10% fetal calf serum and 3.6 mg/mL glucose were added.
In order to inhibit the proliferation of glia cells, cytosine arabinoside was added so as to give a final concentration of 10 μmol/L, from the day one after starting the culture. When the culture had been continued for 2 days, the medium was changed to a Dulbecco modified Eagle medium to which 10% fetal calf serum and 3.6 mg/mL glucose were added. When the culture had been continued for 7-8 days, a test agent was added, after which HNE was immediately added so as to give a final concentration of 25 μmol/L.
The inhibitory activity of an agent on the cultured nerve cell death was […] by using the inhibitory activity on the depression of MTT reducing ability as an index. That is, 24 hours after addition of a test agent, MTT assay [Journal of Immunological Methods, Vol. 65, Page 55 (1983)] developed by Mossmann was carried out, based on which inhibitory rate (%) of the agent on the decrease of MTT assay induced by HNE was calculated.
Inhibitory rate=[MTT assay value of (HNE+agent)−added group)−(MTT assay value of HNE−added group)]÷(MTT assay value of no addition group−MTT assay value of HNE−added group)]×100

[3] = system: nerve cell death caused by Aβ; details: Society for Neuroscience, Abstracts, Vol. 24, No. 1, Page 228 (1998); cited from earlier work
NGF = details: WO96/12717; cited from earlier work

| Molecule | Inhibition rate on the decrease of MTT assay value induced by Aβ [1] | Regeneration rate of sciatic nerve: (regeneration distance in administration group)÷(regeneration distance in control group)×100 (sciatic nerve) | Inhibitory rate on the decrease of MTT assay induced by HNE [2] | also measured |
| --- | --- | --- | --- | --- |
| CN(CCO)CCOCCc1c(F)cc2ccsc2c1F.Cl [Example 137, 2-[{2-[2-(5,7-Difluorobenzo[b]thiophen-6-yl)ethoxy]ethyl}(methyl)amino]-1-ethanol hydrochloride] | 37% | – | – | melting point: 95.5 to 97.5 °C |
| 2-[[2-(3-Benzo[b]thiophen-5-ylpropyl)-ethyl](methyl)amino]-1-ethanol oxalate [Example 119] | 39% | – | – | – |
| CCN(CC)CCOCCc1ccc2sc(-c3ccccc3)cc2c1.Cl [Example 27, N,N-Diethyl-N-{2-[2-(2-phenylbenzo[b]-thiophen-5-yl)ethoxy]ethyl}-amine hydrochloride] | – | 126% | – | melting point: 131 to 138 °C |
| CN(C)CCOCCc1ccc2sccc2c1.Cl [Example 16] | – | 115% | – | Anti-hypoxic activity: (survival time of mouse in administered group)÷(survival time of mouse in control group)×100 (ddY male mice): 158% |
| CN(CCO)CCOCCc1ccc2sccc2c1.O=C(O)C(=O)O [Example 68, 2-{[2-(2-Benzo[b]thiophen-5-ylethoxy)ethyl]-(methyl)amino}-1-ethanol oxalate] | 28% | – | 57% | response vs control in vivo at 100 mg/kg (ddY male mice): 202% |
| CCN(CC)CCOC[C@H](O)c1ccc2sccc2c1.Cl [Example T-588, (R)-1-(benzo[b]thiophen-5-yl)-2-[2-(N,N-diethylamino)ethoxy]ethanol hydrochloride] | – | – | – | Protective action on the nerve cell death caused by Aβ [3]: protective action; Activity of reinforcing the function of NGF (NGF): activity of reinforcing the function of NGF |
| CCN(CC)CCOCCc1ccc2sccc2c1.O=C(O)C(=O)O [Example 10] | – | 117% | 58% | Anti-hypoxic activity: (survival time of mouse in administered group)÷(survival time of mouse in control group)×100 (ddY male mice): 170% |
| CN(CCOCCc1ccc2sccc2c1)Cc1ccccc1.O=C(O)C(=O)O [Example 20, N-[2-(2-benzo[b]thiophen-5-ylethoxy)ethyl]-N-benzyl-N-methylamine oxalate] | – | – | 69% | response vs control in vivo at 100 mg/kg (ddY male mice): 155% |
